Experimental data from paper PMC4877006, “From Binding-Induced Dynamic Effects in SH3 Structures to Evolutionary Conserved Sectors” (PLoS Computational Biology, 2016).

Experiments:
Set-up in all cases: species or system chicken
[1] = test system: c-Src L40V (SH3 domain); assay: ITC binding of peptide RLP2 to c-Src SH3 L40V; settings: ITC, 25 °C
Protocol: (§1) Differential Scanning Calorimetry (DSC) was used to evaluate the effect of the mutation on the conformational equilibrium and stability of the protein. Isothermal Titration Calorimetry (ITC) measured the binding energetics of all mutants to the RLP2 ligand at 25°C. The results for the 15 mutants studied are summarized in Figs 1D, S1 and S2, as well as S3 and S4 Tables.
(§2) The plasmid pET15b containing the chicken c-Src-SH3 domain gene was a generous gift from Dr. E. Freire (Johns Hopkins University). The genes encoding for the c-Src-SH3 mutants were obtained by site directed mutagenesis using the QuickChange Site-Directed-Mutagenesis Kit (Stratagene) taking the WT c-Src-SH3 plasmid as template or purchased from Top Gene Technologies, Canada. WT and mutants of c-Src-SH3 domain were expressed and purified as previously described for the wild type protein [68]. The peptide RLP2 (Ac-RALPPLPRY-NH2) was bought from Peptide 2.0 (Piscataway, USA) and JPT (Berlin, Germany) with a purity > 95%. Protein concentration was determined by absorbance at 280 nm using an extinction coefficient of 16500 M^-1·cm^-1. Peptide concentration was determined by absorbance at 274 nm using an extinction coefficient of 1400 M^-1·cm^-1.
(§3) Isothermal titration calorimetry was performed using a high-precision VP titration calorimetric system (Microcal Inc., Northampton, MA) as previously described. […] Titrations were made using a profile of injection volumes from 3 μL to 20 μL to define the titration curve more clearly. The heat produced by the binding reaction between the Src-SH3 domain and the peptide ligand was calculated as the difference between the heat of reaction and the corresponding heat of dilution, as obtained from independent titrations of the peptide ligand into the buffer. The resulting binding isotherms were analyzed by non-linear least-square fittings of the experimental data to a model corresponding to a single set of identical sites, as described before.
(§4) Supplementary file pcbi.1004938.s008.doc: S3 Table Analysis of Src SH3 binding affinities through ITC. Thermodynamic binding affinity to peptide RLP2. A * indicates experiment made by fluorescence titration only. (DOC) Click here for additional data file.

[2] = target: T1, c-Src N45S (SH3 domain) (Gallus gallus, UniProt P00523, N113S); assay: ITC binding of peptide RLP2 to c-Src SH3 N45S; settings: 25 °C
T1 construct: The plasmid pET15b containing the chicken c-Src-SH3 domain gene; made in house
Protocol: as §1, §2, §3, §4

[3] = target: T2, c- Src W56L (SH3 domain) (Gallus gallus, UniProt P00523, Q128R/W119L); assay: ITC binding of peptide RLP2 to c-Src SH3 W56L; settings: 25 °C
T2 construct: The plasmid pET15b containing the chicken c-Src-SH3 domain gene; made in house
Protocol: as §1, §2, §3, §4

[4] = target: T3, c-Src H59R (SH3 domain) (Gallus gallus, UniProt P00523, H122R/Q128R); assay: ITC binding of peptide RLP2 to c-Src SH3 H59R; settings: 25 °C
T3 construct: The plasmid pET15b containing the chicken c-Src-SH3 domain gene; made in house
Protocol: as §1, §2, §3, §4

[5] = target: T4, c-Src R73E (SH3 domain) (Gallus gallus, UniProt P00523, Q128E); assay: ITC binding of peptide RLP2 to c-Src SH3 R73E; settings: 25 °C
T4 construct: The plasmid pET15b containing the chicken c-Src-SH3 domain gene; made in house
Protocol: as §1, §2, §3, §4

[6] = target: T5, c-Src R73K (SH3 domain) (Gallus gallus, UniProt P00523, Q128K); assay: ITC binding of peptide RLP2 to c-Src SH3 R73K; settings: 25 °C
T5 construct: The plasmid pET15b containing the chicken c-Src-SH3 domain gene; made in house
Protocol: as §1, §2, §3, §4

[7] = target: T6, c- Src R73Q (SH3 domain) (Gallus gallus, UniProt P00523); assay: ITC binding of peptide RLP2 to c-Src SH3 R73Q; settings: 25 °C
T6 construct: The plasmid pET15b containing the chicken c-Src-SH3 domain gene; made in house
Protocol: as §1, §2, §3, §4

[8] = target: T7, c- Src I77V (SH3 domain) (Gallus gallus, UniProt P00523, I132V); assay: ITC binding of peptide RLP2 to c-Src SH3 I77V; settings: 25 °C
T7 construct: The plasmid pET15b containing the chicken c-Src-SH3 domain gene; made in house
Protocol: as §1, §2, §3, §4

[9] = binding of RLP2, N45S relative to wt
[10] = binding of RLP2, W56L relative to wt
[11] = binding of RLP2, H59R relative to wt
[12] = binding of RLP2, R73E relative to wt
[13] = binding of RLP2, R73K relative to wt
[14] = binding of RLP2, R73Q relative to wt
[15] = binding of RLP2, I77V relative to wt

For “Ac-RALPPLPRY-NH2 [RLP2, Ac-RALPPLPRY-NH2]”, the “∆Hb (25 ºC)” value ([1]; binding of RLP2, L40V) was -14.8 ± 0.2 kcal/mol, the Kd ([1]; RLP2 about 2 mM titrated into SH3 (50-122 μM), L40V, read-out: Kd (25 ºC)) was 20.5 ± 0.6 µM and the “∆∆Gb (25 ºC)” value [2, 9] was 0.19 ± 0.04 kcal/mol. For the same substance, the “∆∆Hb (25 ºC)” value [2, 9] was 0.1 ± 0.3 kcal/mol, the “∆Gb (25 ºC)” value ([2]; ITC, binding of RLP2, N45S) was -6.44 ± 0.02 kcal/mol and the “∆Hb (25 ºC)” value ([2]; ITC, binding of RLP2, N45S) was -14.1 ± 0.2 kcal/mol. The Kd ([2]; ITC, RLP2 about 2 mM titrated into SH3 (50-122 μM), N45S, read-out: Kd (25 ºC)) was 19 ± 0.6 µM, the “∆∆Gb (25 ºC)” value [3, 10] was 0.98 ± 0.03 kcal/mol and the “∆∆Hb (25 ºC)” value [3, 10] was 2.4 ± 0.2 kcal/mol. The “∆Gb (25 ºC)” value ([3]; ITC, binding of RLP2, W56L) was -5.65 ± 0.01 kcal/mol, the “∆Hb (25 ºC)” value ([3]; ITC, binding of RLP2, W56L) was -11.8 ± 0.1 kcal/mol and the Kd ([3]; ITC, RLP2 about 2 mM titrated into SH3 (50-122 μM), W56L, read-out: Kd (25 ºC)) was 72.5 ± 1.4 µM. For the same substance, the “∆∆Gb (25 ºC)” value [4, 11] was -0.13 ± 0.03 kcal/mol, the “∆∆Hb (25 ºC)” value [4, 11] was -0.1 ± 0.3 kcal/mol and the “∆Gb (25 ºC)” value ([4]; ITC, binding of RLP2, H59R) was -6.76 ± 0.01 kcal/mol. The “∆Hb (25 ºC)” value ([4]; ITC, binding of RLP2, H59R) was -14.3 ± 0.2 kcal/mol, the Kd ([4]; ITC, RLP2 about 2 mM titrated into SH3 (50-122 μM), H59R, read-out: Kd (25 ºC)) was 11 ± 0.2 µM and the “∆∆Gb (25 ºC)” value [5, 12] was -0.24 ± 0.04 kcal/mol. The “∆∆Hb (25 ºC)” value [5, 12] was -0.1 ± 0.3 kcal/mol, the “∆Gb (25 ºC)” value ([5]; ITC, binding of RLP2, R73E) was -6.87 ± 0.03 kcal/mol and the “∆Hb (25 ºC)” value ([5]; ITC, binding of RLP2, R73E) was -14.3 ± 0.2 kcal/mol. For the same substance, the Kd ([5]; ITC, RLP2 about 2 mM titrated into SH3 (50-122 μM), R73E (control), read-out: Kd (25 ºC)) was 9.3 ± 0.5 µM, the “∆∆Gb (25 ºC)” value [6, 13] was -0.12 ± 0.04 kcal/mol and the “∆∆Hb (25 ºC)” value [6, 13] was 0.3 ± 0.2 kcal/mol. For the same substance, the “∆Gb (25 ºC)” value ([6]; ITC, binding of RLP2, R73K) was -6.75 ± 0.02 kcal/mol, the “∆Hb (25 ºC)” value ([6]; ITC, binding of RLP2, R73K) was -13.9 ± 0.1 kcal/mol and the Kd ([6]; ITC, RLP2 about 2 mM titrated into SH3 (50-122 μM), R73K (control), read-out: Kd (25 ºC)) was 11.3 ± 0.4 µM. For the same substance, the “∆∆Gb (25 ºC)” value [7, 14] was -0.11 ± 0.04 kcal/mol, the “∆∆Hb (25 ºC)” value [7, 14] was -0.4 ± 0.2 kcal/mol and the “∆Gb (25 ºC)” value ([7]; ITC, binding of RLP2, R73Q) was -6.74 ± 0.02 kcal/mol. For the same substance, the “∆Hb (25 ºC)” value ([7]; ITC, binding of RLP2, R73Q) was -14.6 ± 0.1 kcal/mol, the Kd ([7]; ITC, RLP2 about 2 mM titrated into SH3 (50-122 μM), R73Q (control), read-out: Kd (25 ºC)) was 11.4 ± 0.3 µM and the “∆∆Gb (25 ºC)” value [8, 15] was 0.31 ± 0.03 kcal/mol. The “∆∆Hb (25 ºC)” value [8, 15] was 0.5 ± 0.2 kcal/mol, the “∆Hb (25 ºC)” value ([8]; ITC, binding of RLP2, I77V) was -13.7 ± 0.1 kcal/mol and the Kd ([8]; ITC, RLP2 about 2 mM titrated into SH3 (50-122 μM), I77V, read-out: Kd (25 ºC)) was 15.5 ± 0.3 µM.
